Reference: patent publication US12551474B2, “Use of pridopidine for the treatment of fragile X syndrome” (PRILENIA NEUROTHERAPEUTICS LTD., priority 2017, dated 2026)
Like-named read-outs stand apart in the source and are kept apart here.

Key:
FXS neurons = test: neurite outgrowth in FXS neurons with genetic or pharmacological inactivation of S1R; assay type: cell-based, human
Source text: To investigate whether the rescue of neurite outgrowth deficits in FXS neurons following pridopidine treatment is mediated via sigma-1 receptor (S1R), virally-delivered Cas9 was used to target and inactivate S1R in FXS NPC prior to neuronal differentiation. Effective inactivation of S1R gene and loss of its protein product was confirmed by western blot (FIG. 6A).
The effect of a pharmacological inhibitor of S1R on pridopidine-mediated neurite outgrowth improvements in FXS neurons was further tested.

rat striatum = conditions: transcriptomic analysis; cited from earlier work
neuroblastoma cell line = conditions: S1R-dependent; cited from earlier work
human FXS neurons = conditions: 8-day period, vs DMSO
Source text: Control cells used were a human Embryonic Stem (ES) cell line.
FIG. 2A upper panels show MAP2/Tuj-1/DNA immunostaining; lower panels show GABA/NeuN/DNA immunostaining.
Neurite growth is a surrogate of neuronal development and maturation.
Open squares show data from DMSO treated FXS neurons.

[1] = test system: human patients afflicted with FXS; conditions: periodic (daily or twice daily) oral administration, pediatric or adult patients
[2] = test system: Q175 knock-in (Q175 KI) HD mouse model; conditions: cited from earlier work
[3] = test system: human patients afflicted with a FXS related disorder; conditions: periodic (daily or twice daily) oral administration, pediatric or adult patients
Method: The human patients are pediatric patients or adult patients.
A pridopidine composition as described herein is administered orally to a subject suffering from a FXS related disorder.

CCCN(CCC)CCc1ccc(OC)c(OCCc2ccccc2)c1 [NE-100, reference compound]
effect on pridopidine-mediated neurite outgrowth improvement in FXS neurons (FXS neurons; co-administration of NE-100 (1 μM) with pridopidine): blocked the effect of pridopidine

CCCN1CCC(c2cccc(S(C)(=O)=O)c2)CC1 [pridopidine, 4-[3-(methylsulfonyl)phenyl]-1-propyl-piperidine]
expression of BDNF, D1R, GR and Akt/PI3K pathways (rat striatum): activates expression | secretion of BDNF (neuroblastoma cell line): enhances secretion | neurite growth in FXS neurons (human FXS neurons; 1 uM pridopidine): significant improvement in neurite growth | neurite growth in FXS neurons (human FXS neurons; 5 uM pridopidine): significant improvement in neurite growth | neurite outgrowth in FXS neurons (FXS neurons; 100 nM pridopidine for 24 hrs): improvement in neurite outgrowth | improvement in neurite outgrowth in FXS neurons in which S1R was inactivated (S1RKO) (FXS neurons; 100 nM pridopidine for 24 hrs, S1RKO (Cas9)): abolished | treatment of FXS [1]: effective | gene expression profile versus HD disease gene expression profile [2]: reversed pattern | treatment of a FXS related disorder [3]: effective
